ChEMBL document CHEMBL2169819, “Synthesis and biological evaluation of 2-amino-3-(4-chlorobenzoyl)-4-[(4-arylpiperazin-1-yl)methyl]-5-substituted-thiophenes. effect of the 5-modification on allosteric enhancer activity at the A1 adenosine receptor” (J Med Chem, 2012)

Assays:
[1] = molecular target: T1, Adenosine receptor A1 (Homo sapiens) (UniProt P30542); assay: Allosteric enhancing activity at human adenosine A1 receptor expressed in CHO cells assessed as increase in CCPA-induced [3H]DPCPX displacement at 10 uM after 90 mins relative to control; format: cell-based
T1 sequence (whole entry): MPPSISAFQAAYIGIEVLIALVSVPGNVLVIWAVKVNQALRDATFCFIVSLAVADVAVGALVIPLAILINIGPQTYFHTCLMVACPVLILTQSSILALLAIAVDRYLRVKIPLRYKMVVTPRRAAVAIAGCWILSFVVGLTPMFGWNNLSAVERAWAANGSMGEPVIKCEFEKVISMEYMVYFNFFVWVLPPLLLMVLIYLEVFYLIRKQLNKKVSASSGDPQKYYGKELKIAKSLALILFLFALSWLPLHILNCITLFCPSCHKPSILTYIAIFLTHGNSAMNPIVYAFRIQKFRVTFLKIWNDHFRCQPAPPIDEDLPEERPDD

[2] = molecular target: T1, Adenosine receptor A1 (Homo sapiens); assay: Allosteric enhancing activity at human adenosine A1 receptor expressed in CHO cells assessed as increase in [3H]-2-chloro-N6-cyclopentyladenosine Bmax at 10 uM after 90 mins relative to control; format: cell-based
[3] = molecular target: T2, Adenosine receptor A3 (Homo sapiens) (UniProt P0DMS8); assay: Displacement of [3H]MRE-3008-F20 from human adenosine A3 receptor expressed in CHO cells at 10 uM after 120 mins by scintillation counting; format: cell-based
T2 sequence (whole entry): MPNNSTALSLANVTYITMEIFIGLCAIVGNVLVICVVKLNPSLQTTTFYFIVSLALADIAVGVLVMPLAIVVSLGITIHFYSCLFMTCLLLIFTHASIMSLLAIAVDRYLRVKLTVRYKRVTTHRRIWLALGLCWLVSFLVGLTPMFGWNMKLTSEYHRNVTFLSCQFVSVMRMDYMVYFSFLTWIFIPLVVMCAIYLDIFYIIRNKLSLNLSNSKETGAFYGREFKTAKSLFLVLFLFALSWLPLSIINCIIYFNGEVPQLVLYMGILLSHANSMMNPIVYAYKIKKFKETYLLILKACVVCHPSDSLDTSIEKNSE

[4] = molecular target: Adenosine receptor A2a (Homo sapiens) (UniProt P29274); assay: Displacement of [3H]ZM241385 from human adenosine A2A receptor expressed in CHO cells at 10 uM after 120 mins by scintillation counting; format: cell-based
[5] = molecular target: T1, Adenosine receptor A1 (Homo sapiens); assay: Displacement of [3H]DPCPX from human adenosine A1 receptor expressed in CHO cells at 10 uM after 120 mins by scintillation counting; format: cell-based
[6] = molecular target: T1, Adenosine receptor A1 (Homo sapiens); assay: Allosteric enhancing activity at human adenosine A1 receptor expressed in CHO cells assessed as inhibition of forskolin-stimulated cAMP accumulation at 100 nM incubated for 10 mins prior to forskolin-stimulation measured after 5 mins by competition protein binding assay in presence of 2-chloro-N6-cyclopentyladenosine; format: functional, cell-based
[7] = molecular target: T1, Adenosine receptor A1 (Homo sapiens); assay: Allosteric enhancing activity at human adenosine A1 receptor expressed in CHO cells assessed as inhibition of forskolin-stimulated cAMP accumulation at 10 uM incubated for 10 mins prior to forskolin-stimulation measured after 5 mins by competition protein binding assay; format: functional, cell-based

Adenosine receptor A2a (Homo sapiens), sequence (P29274 whole entry): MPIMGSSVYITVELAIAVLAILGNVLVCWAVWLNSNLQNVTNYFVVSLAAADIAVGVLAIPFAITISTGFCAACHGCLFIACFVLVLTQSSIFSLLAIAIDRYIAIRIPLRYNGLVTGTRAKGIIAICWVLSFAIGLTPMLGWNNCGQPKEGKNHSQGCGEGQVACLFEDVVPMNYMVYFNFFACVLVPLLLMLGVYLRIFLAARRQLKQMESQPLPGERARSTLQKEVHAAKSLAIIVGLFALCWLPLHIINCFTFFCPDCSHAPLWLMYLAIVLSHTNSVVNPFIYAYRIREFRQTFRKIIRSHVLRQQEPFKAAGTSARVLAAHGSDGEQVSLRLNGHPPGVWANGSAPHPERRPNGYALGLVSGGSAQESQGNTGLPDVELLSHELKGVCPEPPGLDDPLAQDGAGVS

Structure (SMILES) | Ratio Ki [1] | fold change (FC) [2] | inhibition [3] | inhibition [4] | inhibition [5] | inhibition [6] | inhibition [7]
Cc1sc(N)c(C(=O)c2ccc(Cl)cc2)c1CN1CCN(Cc2ccccc2)CC1 | 1.4 | 1.8 | < 12% | < 12% | < 12% | 19% | 14%
Nc1sc(-c2ccccc2)c(CN2CCN(c3ccc(Cl)cc3)CC2)c1C(=O)c1ccc(Cl)cc1 | 7.9 | 9.7 | < 12% | < 12% | < 12% | 67% | 68%
Cc1sc(N)c(C(=O)c2ccc(Cl)cc2)c1CN1CCN(c2ccc(C(F)(F)F)cc2)CC1 | 6.8 | 7.6 | < 12% | < 12% | < 12% | 61% | 60%
Nc1sc(-c2ccccc2)c(CN2CCN(c3ccc(C(F)(F)F)cc3)CC2)c1C(=O)c1ccc(Cl)cc1 | 8.9 | 10.7 | < 12% | < 12% | < 12% | 73% | 72%
Nc1sc(-c2ccc(Cl)cc2)c(CN2CCN(c3cccc(C(F)(F)F)c3)CC2)c1C(=O)c1ccc(Cl)cc1 | 13 | 11.8 | < 12% | < 12% | < 12% | 78% | 81%
Cc1sc(N)c(C(=O)c2ccc(Cl)cc2)c1CN1CCN(c2ccc(C#N)cc2)CC1 | 1.2 | 1.4 | < 12% | < 12% | < 12% | 15% | 11%
COc1ccc(N2CCN(Cc3c(C)sc(N)c3C(=O)c3ccc(Cl)cc3)CC2)cc1 | 2.6 | 3.2 | < 12% | < 12% | < 12% | 30% | 31%
Cc1sc(N)c(C(=O)c2ccc(Cl)cc2)c1CN1CCN(c2ccc(F)cc2)CC1 | 5.2 | 5.9 | < 12% | < 12% | < 12% | 53% | 50%
Nc1sc(-c2ccc(Cl)cc2)c(CN2CCN(c3ccc(Cl)c(Cl)c3)CC2)c1C(=O)c1ccc(Cl)cc1 | 7.7 | 8.3 | < 12% | < 12% | < 12% | 67% | 69%
Cc1sc(N)c(C(=O)c2ccc(Cl)cc2)c1CN1CCN(c2ccc([N+](=O)[O-])cc2)CC1 | 1.1 | 1.3 | < 12% | < 12% | < 12% | 13% | 9%
CCc1sc(N)c(C(=O)c2ccc(Cl)cc2)c1CN1CCN(c2ccccc2)CC1 | 4.9 | 5.5 | < 12% | < 12% | < 12% | 50% | 57%
Nc1sc(-c2ccc(Cl)cc2)c(CN2CCN(c3ccc(Cl)c(C(F)(F)F)c3)CC2)c1C(=O)c1ccc(Cl)cc1 | 8 | 10.1 | < 12% | < 12% | < 12% | 70% | 76%
CCc1sc(N)c(C(=O)c2ccc(Cl)cc2)c1CN1CCN(c2ccc(Cl)cc2)CC1 | 6 | 6.5 | < 12% | < 12% | < 12% | 53% | 60%
Nc1sc(-c2ccccc2)c(CN2CCN(c3ccc(F)cc3)CC2)c1C(=O)c1ccc(Cl)cc1 | 9.4 | 11.1 | < 12% | < 12% | < 12% | 71% | 77%
